Data from US4281654A, “Drug delivery system for controlled ocular therapy” (ALZA Corporation, priority 1980, dated 1981).
Converted amounts (≈) assume the structure as drawn. Where a name gives a salt, the structure may show the parent alone.

Tests used:
[1] = system: open-angle glaucoma, intraocular pressure; assay: Clinical study of mean intraocular pressure (IOP) in patients diagnosed as having open-angle glaucoma; type: in vivo, patients (human); conditions: 12 patients
Description: The present invention provides an ocular therapeutic system for administering a therapeutically effective amount of a beta-adrenergic blocking drug, and a therapeutically effective amount of a parasympathomimetic drug concurrently from a single ocular dosage form that can lead to synergestic clinical results. The clinical study that follows presents the results obtained by the simultaneous administration to the eye of a beta-adrenergic blocking drug and a parasympathomimetic drug to the eyes of patients.
In a clinical study using 12 patients diagnosed as having open-angle glaucoma, the mean intraocular pressures, IOP's, were measured with each patient under the following therapies: (a) S-(-)-1-(tert-butylamino)-3-[(4-morpholino-1,2,5-thiadiazol-3-yl)oxy-2-propanol maleate, timolol maleate, 0.25% ophthalmic solution instilled as drop alone; (b) timolol maleate, 0.50% ophthalmic solution instilled as drop alone; (c) (3s-cis)-3-ethyldihydro-4-[(1-methyl-1H-imidazol-5-yl) methyl]-2(3H)-furanone, pilocarpine, administered at a rate of 40 micrograms per hour from an ocular therapeutic system placed in the conjunctival sac; (d) therapy comprising 0.25 timolol maleate instilled with concomitant release of 40 micrograms of pilocarpine from an ocular system; and (e) therapy comprising 0.50 timolol maleate instilled with concomitant release of 40 mcg (micrograms) of pilocarpine from an ocular system. In the table, the results of (a) and (c) administered alone are additive, while the results are synergistic for (d) wherein the two drugs were administered concomitantly to the eye. In the table, the results of (b) and (c) administered alone are additive, where the results are synergistic for (e) wherein the two drugs were administered concomitantly to the eye.

[2] = Solubility in distilled water; type: physicochemical
[3] = Osmotic pressure of the solute; type: physicochemical
Description: The osmotic pressure, ATM, of the above solutes can be measured in a commercially available osmometer that measures the vapor pressure difference between pure water and the solution containing a solute to be analyzed, and according to standard thermodynamic principles, the vapor pressure ratio is converted into osmotic pressure difference. An osmometer that can be used for the present measurements is identified as Model 302B Vapor Pressure Osmometer, manufactured by Hewlett Packard Company, Avondale, Pa.

In the case of `CC(C)(C)NC[C@H](O)COc1nsnc1N1CCOCC1` [timolol, S-(-)-1-(tert-butylamino)-3-[(4-morpholino-1,2,5-thiadiazol-3-yl)oxy-2-propanol maleate], the “Mean IOP Reduction” value ([1]; (a) timolol maleate 0.25% ophthalmic solution instilled as drop alone) is reported as 1.4 mm and the “Mean IOP Reduction” value ([1]; (b) timolol maleate 0.50% ophthalmic solution instilled as drop alone) is reported as 2.4 mm.
In the case of `CC[C@@H]1C(=O)OC[C@@H]1Cc1cncn1C` (relative stereo) [pilocarpine, (3s-cis)-3-ethyldihydro-4-[(1-methyl-1H-imidazol-5-yl)methyl]-2(3H)-furanone], the “Mean IOP Reduction” value ([1]; (c) pilocarpine 40 mcg/hr alone from ocular therapeutic system in conjunctival sac) is reported as 1.6 mm.
Work on `CC[C@@H]1C(=O)OC[C@@H]1Cc1cncn1C` [(3S-cis)-ethyldihydro-4-[(1-methyl-1H-imidazol-5-yl)methyl]-2(3H)-furanonenitrate] yielded a solubility ([2]; water) of 270 mg/mL (≈ 1300 mM) and an osmotic pressure [3] of 37 atm.
With `COCCc1ccc(OCC(O)CNC(C)C)cc1` (racemic) [(±)-1-[4-(2-methoxyethyl)-phenoxy]-3-[(1-methylethyl)amino]-2-propanol tratrate] the solubility ([2]; 25° C) was 860 mg/mL (≈ 3220 mM) and the osmotic pressure [3] was 210 atm.
